Experimental data: ChEMBL document CHEMBL5729324, “Aromatic heterocyclic substituted olefin compound, preparation method for same, pharmaceutical composition of same, and applications thereof” (2022)

The molecules below were run against T1, TGF-beta receptor type-1 (Homo sapiens, UniProt P36897) (assay: Enzyme Activity Inhibition: 1. Preparation of a 1× kinase buffer: 40 mM Tris (pH 7.5), 20 mM MgCl2, 0.10% BSA, 1 mM DTT.2. Compound preparation: The final detection concentration of the compound was 10 μM, which was prepared to a 100-fold concentration, i.e., 1 mM. 100 μL of the 100-fold compound was added in the second well of the 384-well plate, and 60 μL of 100% DMSO was added to the other wells. […] 50 nL of the compound was transferred to the reaction plate with echo.3. Kinase reaction: The kinase was added to a 1× kinase buffer to form a 2× enzyme solution. […] The polypeptide TGFbR1 (purchased from Signal Chem, catalog number T36-58) and ATP were added to a 1× kinase buffer to form a 2× substrate solution. The final concentration of the substrate solution was peptide TGFbR1 0.1 mg/mL, ATP 7 μM. 2.5 μL of the 2× enzyme solution was added to the 384-well reaction plate (there was already 50 nL of 100% DMSO dissolved compound), and a 1× kinase buffer was added to a negative control well. The reaction solution was incubated at room temperature for 10 minutes. 2.5 μL of 2× substrate solution was added to the 384-well reaction plate. The 384-well plate was covered and incubated at 30° C. for 1 hour. ADP-Glo reagent (purchased from Promege, catalog number v9102) was equilibrated to room temperature. 5 μL of ADP-Glo reagent was transferred to the reaction well of the 384-well plate to stop the reaction.4. Detection of reaction results: 10 μL of kinase detection reagent was transferred to each well, shaken for 1 minute, and let stand at room temperature for 30 minutes. The sample luminescence value was read at Synegy.).
T1 sequence (P36897 whole entry): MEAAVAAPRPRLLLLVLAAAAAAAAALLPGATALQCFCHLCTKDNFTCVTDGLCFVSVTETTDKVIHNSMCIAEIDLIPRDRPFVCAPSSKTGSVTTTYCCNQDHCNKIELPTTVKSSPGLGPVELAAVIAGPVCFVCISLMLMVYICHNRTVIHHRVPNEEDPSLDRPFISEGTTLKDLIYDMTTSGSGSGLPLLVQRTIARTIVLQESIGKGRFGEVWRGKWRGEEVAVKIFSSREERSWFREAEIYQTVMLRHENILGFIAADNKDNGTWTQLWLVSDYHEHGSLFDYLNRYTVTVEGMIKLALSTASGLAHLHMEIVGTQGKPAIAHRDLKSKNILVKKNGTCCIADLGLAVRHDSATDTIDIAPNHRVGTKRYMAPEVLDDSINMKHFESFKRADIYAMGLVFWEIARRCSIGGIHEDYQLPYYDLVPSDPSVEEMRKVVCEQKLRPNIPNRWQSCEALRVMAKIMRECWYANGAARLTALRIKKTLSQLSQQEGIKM

Row | Compound | IC50 [nM]
1 | Cc1cccc(/C=C/c2ccc3ncc(C(N)=O)n3c2)n1 | 372
2 | CCOC(=O)c1cnc2ccc(/C=C\c3cccc(OC)n3)cn12 | 56
3 | CNC(=O)/C(=C/c1cccc(C)n1)c1ccc2ncc(C(N)=O)n2c1 | 207
4 | Cc1cccc(/C=C(/C(=O)N2CCCCC2)c2ccc3ncc(C#N)n3c2)n1 | 4950
5 | Cc1cccc(/C=C(/C(=O)N2CCCCC2)c2ccc3ncc(C(N)=O)n3c2)n1 | 58
6 | Cc1cccc(/C=C(/C(N)=O)c2ccc3ncc(C(N)=O)n3c2)n1 | 328

Now those with a lower IC50, led by results:

Row | IC50 [nM] | Compound
7 | 7.4 | COC(=O)/C(=C/c1cccc(C)n1)c1ccc2ncc(C(N)=O)n2c1
8 | 25 | Cc1cccc(/C=C\c2ccc3ncc(C#N)n3c2)n1
9 | 21 | Cc1cccc(/C=C\c2ccc3ncc(-c4nnn[nH]4)n3c2)n1
10 | 8.5 | Cc1ccc(F)c(/C=C\c2ccc3ncc(C(N)=O)n3c2)n1
11 | 33 | Cc1csc(/C=C\c2ccc3ncc(C(N)=O)n3c2)n1
12 | 15 | COc1cccc(/C=C\c2ccc3ncc(C(N)=O)n3c2)n1
13 | 44 | Cc1cccc(/C=C\c2ccc3ncc(C(=O)NCCN4CCOCC4)n3c2)n1
